# Measurements reported in patent EP4000618A1, “COMBINATION OF AT LEAST ONE INHIBITOR OF THE XC TRANSPORTER WITH AT LEAST ONE INHIBITOR OF MEMBRANE-BOUND CATALASE FOR INHIBITING AND / OR INACTIVATING TUMOR CELLS” (Motz, Manfred, priority 2020, dated 2022).
# Entries after “also recorded” stand apart in the source; their conditions may differ. Structures can show the parent of a compound that is named as a salt.
# Test system: humanen Magenkarzinomzellen (MKN-45)
# Assay: Apoptosis induction in MKN-45 tumour cells after catalase inhibition; percentage of cells with apoptosis features counted by phase-contrast microscopy
# Assay type: cell-based, human
# Conditions: for Effect on the consequence of the 3-AT pretreatment (no lag phase, independence from aquaporins): inhibitor present during 1 h pretreatment with 3-AT (Figur 3B)
# Description: Erfindungsgemäß wurden verschiedene Experimente mit humanen Magenkarzinomzellen (MKN-45) durchgeführt. Die experimentellen Einzelheiten der Versuche sind in der Literaturstelle Heinzelmann und Bauer, Biol. Chem. (2010) 391, S. 675-693 detailliert beschrieben. Auf die experimentelle Ausgestaltung wird hiermit ausdrücklich verwiesen.
# In der Literaturstelle Heinzelmann und Bauer sind die Herkunft der jeweiligen Zellen, deren Anzuchtbedingungen, die Apoptoseinduktion und deren Messung beschrieben. Die membranständige Katalase wurde mit 3-Aminotriazol (3-AT) gehemmt. Spezifische Inhibitoren, die die Differenzierung zwischen dem reaktiven NO/Peroxynitritweg und dem HOCI-Weg erlauben, sind weiterhin in der Literaturstelle Heinzelmann und Bauer (a.a.o.) offenbart. Bei den einzelnen Auswertungen wurde die Apoptoseinduktion über die Quantifizierung des Prozentsatzes derjenigen Zellen bestimmt, die die Apoptosemerkmale Kernkondensation, Kernfragmentation und/oder Membrane-Blebbing aufwiesen. Die Quantifizierung erfolgte jeweils mit Hilfe eines Phasenkontrast-Umkehrmikroskops.
# [1] = inhibitor added to 3-AT, higher 3-AT concentration range (Figur 1A, 1B)
# [2] = inhibitor added to 3-AT, whole 3-AT concentration range (Figur 1A, 1C)
compound,measurement,setting,value
"COC(=O)[C@@H](N)CCCNC(=N)N[N+](=O)[O-] [L-NAME, N-omega-nitro-L-arginine methylester hydrochloride]",Hemmung der Apoptoseinduktion,"inhibitor added to 3-AT, low 3-AT concentration range (Figur 1B), hydrochloride",zur Hemmung; also recorded: Hemmung der Apoptose im niedrigeren 3-AT Konzentrationsbereich
"Cl.O=S(=O)([O-])c1ccc(-c2c3nc(c(-c4ccc(S(=O)(=O)O)cc4)c4ccc([nH]4)c(-c4ccc(S(=O)(=O)O)cc4)c4nc(c(-c5ccc(S(=O)(=O)O)cc5)c5ccc2[nH]5)C=C4)C=C3)cc1.[Fe] [FeTPPS, 5-, 10-, 15-, 20-Tetrakis(4-sulfonatophenyl)porphyrinato iron(III) chloride]",Hemmung der Apoptoseinduktion,"cells not pretreated, range 3-6 nM 3-AT (Figur 6A)",geringfügigen Anteil des NO/Peroxynitritwegs
same,Hemmung der Apoptoseinduktion,"inhibitor added to 3-AT, low 3-AT concentration range (Figur 1B)",zur Hemmung; also recorded: Hemmung der Apoptose im niedrigeren 3-AT Konzentrationsbereich
COc1cccc(C=NCCN=Cc2cccc(OC)c2[O-])c1[O-].[Cl-].[Mn+3] [EUK-134],Hemmung der Apoptoseinduktion,[1],nur in diesem Bereich zur Hemmung; also recorded: hemmt nur die durch höhere Konzentrationen an 3-AT induzierte Apoptose
same,"Effect on the consequence of the 3-AT pretreatment (no lag phase, independence from aquaporins)",,führt die Vorbehandlung nicht zu der unter A gezeigten Konsequenz
"NCCc1ccc(S(=O)(=O)F)cc1 [AEBSF, 4-(2-Aminoethyl)benzenesulfonyl fluoride]",Hemmung der Apoptoseinduktion,[2],gehemmt; also recorded: vollständigen Hemmung der Apoptose
same,"Effect on the consequence of the 3-AT pretreatment (no lag phase, independence from aquaporins)",,führt die Vorbehandlung nicht zu der unter A gezeigten Konsequenz
O=C(O)c1cc(/N=N/c2ccc(S(=O)(=O)Nc3ccccn3)cc2)ccc1O [Sulfasalazin],Abhängigkeit der Apoptoseinduktion von der Aquaporinwirkung (Hemmbarkeit durch Silberionen),"14 h pretreatment with rising concentrations of Sulfasalazin, then 3-AT (Figur 4B-D)",ersetzt graduell die Wirkung der Aquaporine; also recorded: in steigendem Umfang von der Aktivität der Aquaporine unabhängig
same,Synergieeffekt mit 3-AT,Sulfasalazin and 3-AT given at the same time (Figur 5B),bleibt dieser Synergieeffekt aus; also recorded: nicht ausreichend für die Induktion eines Synergieeffekts
same,Absenkung der 3-AT-Konzentration bei gleichbleibendem Effekt,after Sulfasalazin pretreatment (Figur 4),ca. zehnfacher Absenkung
same,Synergieeffekt mit 3-AT,"pretreatment of the cells with Sulfasalazin, then 3-AT (Figur 5A, 4A vs 4D)",konzentrationsabhängig zu einem Synergieeffekt; also recorded: Synergieeffekt zwischen 3-AT- und Sulfasalazinwirkung
same,Abhängigkeit von der Aquaporinwirkung,"pretreatment with 100 µM Sulfasalazin, then 3-AT (Figur 4D)",vollständig aufgehoben
same,Signalweg der Apoptoseinduktion beim Synergieeffekt,"pretreatment with 100 µM Sulfasalazin, then 3-AT, profile with FeTPPS and Taurin (Figur 6B)",vollständig durch den NO/Peroxynitritweg bedingt; also recorded: lediglich zu einer Verstärkung des NO/Peroxynitritwegs geführt
NCCS(=O)(=O)O [Taurin],Hemmung der Apoptoseinduktion,Taurin added two hours after 3-AT (Figur 2B),sofortigen Abbruch der Apoptoseinduktion; also recorded: erfolgreichen und sofortigen Hemmung der Apoptoseinduktion
same,Steigerung der Apoptose,"cells not pretreated, range 0.7 und 6 mM 3-AT (Figur 6A)",Steigerung der Apoptose
same,Hemmung der Apoptoseinduktion,[1],"im höheren Konzentrationsbereich; also recorded: spezifisch Apoptose hemmen, die durch höhere Konzentrationen an 3-AT induziert wurde"
[Ag+] [Silberionen],Hemmung der Apoptoseinduktion,"1 h preincubation with 100 mM 3-AT, wash, 3-AT again with Silberionen (Figur 3A)",nicht mehr durch Silberionen zu hemmen
same,Hemmung der Apoptoseinduktion,"1 h preincubation without 3-AT, wash, then 3-AT with Silberionen (Figur 3A)",daher durch Silberionen zu hemmen
same,Hemmung der Apoptoseinduktion,Silberionen 5 µM added before 3-AT 100 mM (Figur 2A),blockiert die Apoptoseinduktion fast vollständig; also recorded: nur dann vollständig wirkt
same,Hemmung der Apoptoseinduktion,"Silberionen 5 µM added later, after 3-AT 100 mM (Figur 2A)",wirken schwächer oder gar nicht
same,Hemmung der Apoptoseinduktion,"Silberionen 5 µM added to 3-AT concentration series (Figur 1D, 4A)",hemmen die Apoptose vollständig; also recorded: durch Silberionen gehemmt; also recorded: blockieren die Apoptoseinduktion vollständig
OC[C@@H](O)[C@@H](O)[C@H](O)[C@H](O)CO [Mannitol],Hemmung der Apoptoseinduktion,[2],gehemmt; also recorded: Hemmung der Apoptoseinduktion
